{
  "source": "PubChem BioAssay (NCI)",
  "assay_in_all_cases": "NCI-60 cell line screen, 48 h",
  "key": {"UO-31 renal": {"test_system": "UO-31 renal"}, "HOP-62 NSCLC": {"test_system": "HOP-62 NSCLC"}, "SN12C renal": {"test_system": "SN12C renal"}, "786-0 renal": {"test_system": "786-0 renal"}, "MDA-MB-231 breast": {"test_system": "MDA-MB-231 breast"}, "HCT-116 colon": {"test_system": "HCT-116 colon"}, "MALME-3M melanoma": {"test_system": "MALME-3M melanoma"}, "COLO 205 colon": {"test_system": "COLO 205 colon"}, "ACHN renal": {"test_system": "ACHN renal"}, "HCC-2998 colon": {"test_system": "HCC-2998 colon"}, "MDA-MB-435": {"test_system": "MDA-MB-435"}, "CCRF-CEM leukemia": {"test_system": "CCRF-CEM leukemia"}, "HS 578T breast": {"test_system": "HS 578T breast"}, "SR leukemia": {"test_system": "SR leukemia"}, "NCI/ADR-RES ovarian": {"test_system": "NCI/ADR-RES ovarian"}, "RPMI-8226 leukemia": {"test_system": "RPMI-8226 leukemia"}, "UACC-62 melanoma": {"test_system": "UACC-62 melanoma"}, "DU-145 prostate": {"test_system": "DU-145 prostate"}, "U251 CNS": {"test_system": "U251 CNS"}, "TK-10 renal": {"test_system": "TK-10 renal"}, "A549 NSCLC": {"test_system": "A549 NSCLC"}, "NCI-H522 lung": {"test_system": "NCI-H522 lung"}, "BT-549 breast": {"test_system": "BT-549 breast"}, "CAKI-1 renal": {"test_system": "CAKI-1 renal"}, "SF-539 CNS": {"test_system": "SF-539 CNS"}, "K-562 leukemia": {"test_system": "K-562 leukemia"}, "SF-295 CNS": {"test_system": "SF-295 CNS"}, "EKVX NSCLC": {"test_system": "EKVX NSCLC"}, "SNB-75 CNS": {"test_system": "SNB-75 CNS"}},
  "note": "Several values for one entry are separate records, joined by “and”; a condition that tells them apart may be missing. Identical values can stand only once.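 Dose response: 5 concentrations. Exposure: 48 h. Format: 96-well plates. Endpoint: linear interpolation; highest concentration if not reached. Here, GI50 denotes the concentration required for 50% inhibition of growth. The concentration for full growth arrest is given as TGI.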",
  "data": [
    {"smiles": "O=C(NNc1nc2cc(F)c(F)cc2n2cccc12)c1cccnn1", "values": [
      {"measurement": "GI50", "setting": "UO-31 renal", "result": "105 nM and 41.4 nM"},
      {"measurement": "TGI", "setting": "UO-31 renal", "result": "3.97 µM and 2.34 µM"},
      {"measurement": "GI50", "setting": "HOP-62 NSCLC", "result": "275 nM and 99.4 nM"},
      {"measurement": "TGI", "setting": "HOP-62 NSCLC", "result": "9.22 µM and 11.3 µM"},
      {"measurement": "GI50", "setting": "SN12C renal", "result": "468 nM and 646 nM"},
      {"measurement": "TGI", "setting": "SN12C renal", "result": "30 µM and 31.4 µM"},
      {"measurement": "GI50", "setting": "786-0 renal", "result": "669 nM and 296 nM"},
      {"measurement": "TGI", "setting": "786-0 renal", "result": "30 µM and 12.9 µM"},
      {"measurement": "GI50", "setting": "MDA-MB-231 breast", "result": "559 nM and 750 nM"},
      {"measurement": "TGI", "setting": "MDA-MB-231 breast", "result": "30 µM and 54.7 µM"},
      {"measurement": "GI50", "setting": "HCT-116 colon", "result": "207 nM and 173 nM"},
      {"measurement": "TGI", "setting": "HCT-116 colon", "result": "30 µM and 11.9 µM"},
      {"measurement": "GI50", "setting": "MALME-3M melanoma", "result": "771 nM and 811 nM"},
      {"measurement": "TGI", "setting": "MALME-3M melanoma", "result": 28.7, "unit": "µM"},
      {"measurement": "GI50", "setting": "COLO 205 colon", "result": "384 nM and 321 nM"},
      {"measurement": "TGI", "setting": "COLO 205 colon", "result": "30 µM and 19.1 µM"},
      {"measurement": "GI50", "setting": "ACHN renal", "result": "158 nM and 134 nM"},
      {"measurement": "TGI", "setting": "ACHN renal", "result": "8.32 µM and 6.53 µM"},
      {"measurement": "GI50", "setting": "HCC-2998 colon", "result": "589 nM and 474 nM"},
      {"measurement": "TGI", "setting": "HCC-2998 colon", "result": "30 µM and 19.5 µM"},
      {"measurement": "GI50", "setting": "MDA-MB-435", "result": "1160 nM and 811 nM"},
      {"measurement": "TGI", "setting": "MDA-MB-435", "result": "30 µM and 19.9 µM"},
      {"measurement": "GI50", "setting": "CCRF-CEM leukemia", "result": 76.5, "unit": "nM"},
      {"measurement": "TGI", "setting": "CCRF-CEM leukemia", "result": 1010, "unit": "nM"},
      {"measurement": "GI50", "setting": "HS 578T breast", "result": "1400 nM and 1040 nM"},
      {"measurement": "TGI", "setting": "HS 578T breast", "result": "30 µM and 79 µM"},
      {"measurement": "GI50", "setting": "SR leukemia", "result": "175 nM and 48.6 nM"},
      {"measurement": "GI50", "setting": "NCI/ADR-RES ovarian", "result": "205 nM and 207 nM"},
      {"measurement": "TGI", "setting": "NCI/ADR-RES ovarian", "result": "2.88 µM and 3.56 µM"},
      {"measurement": "GI50", "setting": "RPMI-8226 leukemia", "result": "305 nM and 338 nM"},
      {"measurement": "TGI", "setting": "RPMI-8226 leukemia", "result": "1.15 µM and 7.72 µM"},
      {"measurement": "GI50", "setting": "UACC-62 melanoma", "result": "331 nM and 388 nM"},
      {"measurement": "TGI", "setting": "UACC-62 melanoma", "result": "2.29 µM and 8.83 µM"},
      {"measurement": "GI50", "setting": "DU-145 prostate", "result": "346 nM and 579 nM"},
      {"measurement": "TGI", "setting": "DU-145 prostate", "result": "30 µM and 16.1 µM"},
      {"measurement": "GI50", "setting": "U251 CNS", "result": "229 nM and 172 nM"},
      {"measurement": "TGI", "setting": "U251 CNS", "result": "30 µM and 36.1 µM"},
      {"measurement": "GI50", "setting": "TK-10 renal", "result": "263 nM and 294 nM"},
      {"measurement": "TGI", "setting": "TK-10 renal", "result": "30 µM and 29 µM"},
      {"measurement": "GI50", "setting": "A549 NSCLC", "result": "316 nM and 249 nM"},
      {"measurement": "TGI", "setting": "A549 NSCLC", "result": "30 µM and 15 µM"},
      {"measurement": "GI50", "setting": "NCI-H522 lung", "result": "747 nM and 262 nM"},
      {"measurement": "GI50", "setting": "BT-549 breast", "result": "1400 nM and 271 nM"},
      {"measurement": "TGI", "setting": "BT-549 breast", "result": "30 µM and 24.8 µM"},
      {"measurement": "GI50", "setting": "CAKI-1 renal", "result": "261 nM and 251 nM"},
      {"measurement": "TGI", "setting": "CAKI-1 renal", "result": "30 µM and 11.2 µM"},
      {"measurement": "GI50", "setting": "SF-539 CNS", "result": "349 nM and 339 nM"},
      {"measurement": "TGI", "setting": "SF-539 CNS", "result": "9.18 µM and 8.1 µM"},
      {"measurement": "GI50", "setting": "K-562 leukemia", "result": "374 nM and 323 nM"},
      {"measurement": "TGI", "setting": "K-562 leukemia", "result": "30 µM and 3.78 µM"},
      {"measurement": "GI50", "setting": "SF-295 CNS", "result": "202 nM and 97.5 nM"},
      {"measurement": "TGI", "setting": "SF-295 CNS", "result": "5.23 µM and 6.17 µM"},
      {"measurement": "GI50", "setting": "EKVX NSCLC", "result": "255 nM and 190 nM"},
      {"measurement": "TGI", "setting": "EKVX NSCLC", "result": "30 µM and 16.1 µM"},
      {"measurement": "GI50", "setting": "SNB-75 CNS", "result": "267 nM and 1910 nM"},
      {"measurement": "TGI", "setting": "SNB-75 CNS", "result": "22 µM and 25.4 µM"}
    ]}
  ]
}
